Measurements: US20140349962A1, “RAPID TWO-STEP SYNTHESIS OF ANTI-COAGULANTS” (Massachusetts Institute of Technology, priority 2013, published 2014)

Legend:
[1] = biological target: anti-thrombin III (ATIII) (Homo sapiens, UniProt P01008); settings: compared to in vitro modified commercial heparin
Protocol: PAP^35S-radiolabeled N-deacetylate N-sulfate derivatives of non-sulfated N-acetyl heparosan (HS) polysaccharides (10, 000 counts) was reacted with […] ATIII. Complex formation was analyzed by non-denaturing gel electrophoresis (4% polyacrylamide). The mobility of radiolabeled N-deacetylate N-sulfate derivatives of non-sulfated N-acetyl heparosan (HS) polysaccharides was compared with and without ATIII.
Heparin-ATIII binding buffer contained 12% glycerol, 20 mM Tris-HCl (pH 7.9), 100 mM KCl, 1 mM EDTA, and 1 mM DTT. For a typical 20 μl binding reaction, radiolabeled polysaccharide (10,000 cpm) was mixed with AT-III (1 μg) in the binding buffer. The reaction mixture was incubated at room temperature (23° C.) for 20 min and was then applied to a 4.5% native polyacrylamide gel (with 0.1% of bis-acrylamide). The gel buffer was 10 mM Tris (pH 7.4) and 1 mM EDTA, and the electrophoresis buffer was 40 mM Tris (pH 8.0), 40 mM acetic acid, 1 mM EDTA. The gel was run at 6 volts/cm for 1-2 hours with an SE 250 Mighty Small II gel apparatus (Hoefer Scientific Instruments, San Francisco). After electrophoresis, the gel was transferred to 3 MM paper and dried under vacuum. The dried gel was autoradiographed by a PhosphorImager 445S1 (Molecular Dynamics, Sunnyvale, Calif.). The image was analyzed with NIH Image 1.60 and band intensities were evaluated.

Human factor Xa = settings: approximately; heparin-dependent factor Xa inhibition, commercial heparin as standard
Protocol: Human factor Xa (10.4 mg/ml 50% glycerol, 820 units/mg) (Hematologic Technologies, Essex Junction, Vt.) was used for assay. Factor Xa was diluted 1:200 with PBS containing 1 mg of bovine serum albumin (4 units/ml and 15 units/ml, respectively). ATIII (2.5 mg/ml) (GlycoMed, CA) was diluted 1:200 to give a 2×10^7 M stock solution. The chromogenic substrate S-2765 was from Chromogenix (West Chester, Ohio) and the stock solution of 1 mM with 1 mg/ml Polybrene in water was prepared. Heparin (174 international units/mg, Sigma) was used as a standard. The N-deacetylated N-sulfated polysaccharide product was used for factor Xa studies (10 ng). The protocol involved adding 25 μl of ATIII (2×10 7 M) to 25 μl of a serial dilution of heparin standards or N-deacetylated N-sulfated polysaccharide in Tris-EDTA (50 mM Tris, 7.5 mM EDTA, and 175 mM NaCl (pH 8.4)) buffer. The reaction was incubated at 37° C. for 75 seconds. Factor Xa (25 μl, 4 units/ml) was added. After incubating at 37° C. for 195 seconds, 25 μl of S-2765 was added. The absorbance at 405 nm was read every minute for 10 minutes using a Beckman UV spectrometer.

PF4 = PF4 (Homo sapiens, UniProt P02776); settings: expected because compound is free of 2-O sulfated iduronic acid residues
Chain of PF4 (P02776 32-101): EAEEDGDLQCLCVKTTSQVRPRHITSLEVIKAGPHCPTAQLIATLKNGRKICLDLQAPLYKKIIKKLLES

Chain of anti-thrombin III (ATIII) (P01008 33-464, species assumed): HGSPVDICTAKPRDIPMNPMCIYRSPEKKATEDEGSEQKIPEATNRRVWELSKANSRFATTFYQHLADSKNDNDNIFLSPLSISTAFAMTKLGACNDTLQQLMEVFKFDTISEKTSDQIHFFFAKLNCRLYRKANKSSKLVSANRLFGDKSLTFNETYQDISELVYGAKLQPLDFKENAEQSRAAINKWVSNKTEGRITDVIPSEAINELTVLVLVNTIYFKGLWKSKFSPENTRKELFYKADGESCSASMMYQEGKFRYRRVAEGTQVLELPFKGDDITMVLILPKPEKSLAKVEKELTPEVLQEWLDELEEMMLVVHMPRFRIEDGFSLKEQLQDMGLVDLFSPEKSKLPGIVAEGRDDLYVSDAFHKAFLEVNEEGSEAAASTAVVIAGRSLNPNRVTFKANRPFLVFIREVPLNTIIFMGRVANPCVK

Substance: N-deacetylate N-sulfate derivatives of non-sulfated N-acetyl heparosan (HS) polysaccharide [Formula I]
- percentage of compound bound to ATIII compared to commercial heparin [1]: greater percentage
- specific activity relative to commercial heparin (Human factor Xa): 4-5 times
- ability to bind to PF4 (PF4): reduced ability to bind to PF4
